Experimental data reported in the NIST ThermoML archive (doi:10.1016/j.jct.2018.08.013).
“And” between values parts separate entries of the source, which are not always exact repeats. Equal entries are not always repeated.

How the values were obtained:
[1] = xn = mol fraction of the nth substance listed; settings: 298 K; 100 kPa; Crystal of intercomponent compound 1; X-ray diffraction; x2 = 0.501
[2] = specific heat capacity at constant pressure; xn = mol fraction of the nth substance listed; settings: 100 kPa, Crystal of intercomponent compound 1, x2 = 0.501

[Se] [selenium] + [Ga]
Settings	mass density [kg/m3]
[1]	4995

[2]
Settings	specific heat capacity
16.15 K, relaxation calorimetry	11.99 J/K/kg
16.17 K, relaxation calorimetry	12 J/K/kg
18.16 K, relaxation calorimetry	16.65 J/K/kg and 16.64 J/K/kg
18.18 K, relaxation calorimetry	16.69 J/K/kg
20.17 K, relaxation calorimetry	21.87 J/K/kg
20.18 K, relaxation calorimetry	21.87 J/K/kg
20.19 K, relaxation calorimetry	21.91 J/K/kg
22.2 K, relaxation calorimetry	27.43 J/K/kg and 27.5 J/K/kg
22.21 K, relaxation calorimetry	27.42 J/K/kg
24.22 K, relaxation calorimetry	33.32 J/K/kg and 33.29 J/K/kg
24.23 K, relaxation calorimetry	33.28 J/K/kg
26.23 K, relaxation calorimetry	39.37 J/K/kg and 39.38 J/K/kg
26.24 K, relaxation calorimetry	39.4 J/K/kg
28.25 K, relaxation calorimetry	45.37 J/K/kg and 45.38 J/K/kg and 45.39 J/K/kg
30.27 K, relaxation calorimetry	51.28 J/K/kg and 51.24 J/K/kg
30.28 K, relaxation calorimetry	51.39 J/K/kg
35.31 K, relaxation calorimetry	66.34 J/K/kg and 66.36 J/K/kg and 66.53 J/K/kg
40.35 K, relaxation calorimetry	80.84 J/K/kg and 80.98 J/K/kg and 81.11 J/K/kg
45.38 K, relaxation calorimetry	95.31 J/K/kg
45.39 K, relaxation calorimetry	94.97 J/K/kg
45.4 K, relaxation calorimetry	95.04 J/K/kg
50.4 K, relaxation calorimetry	109.56 J/K/kg
50.42 K, relaxation calorimetry	108.96 J/K/kg
50.44 K, relaxation calorimetry	108.89 J/K/kg
55.43 K, relaxation calorimetry	122.81 J/K/kg
55.45 K, relaxation calorimetry	122.01 J/K/kg
55.49 K, relaxation calorimetry	122.14 J/K/kg
60.46 K, relaxation calorimetry	135.73 J/K/kg
60.49 K, relaxation calorimetry	134.99 J/K/kg
60.52 K, relaxation calorimetry	134.92 J/K/kg
65.48 K, relaxation calorimetry	148.37 J/K/kg
65.53 K, relaxation calorimetry	147.43 J/K/kg
65.58 K, relaxation calorimetry	147.3 J/K/kg
70.5 K, relaxation calorimetry	160.95 J/K/kg
70.57 K, relaxation calorimetry	159.6 J/K/kg
70.63 K, relaxation calorimetry	159.47 J/K/kg
75.53 K, relaxation calorimetry	172.38 J/K/kg
75.61 K, relaxation calorimetry	170.97 J/K/kg
75.66 K, relaxation calorimetry	170.77 J/K/kg
80.55 K, relaxation calorimetry	184.09 J/K/kg
80.66 K, relaxation calorimetry	182.27 J/K/kg
80.7 K, relaxation calorimetry	182.34 J/K/kg
85.57 K, relaxation calorimetry	194.78 J/K/kg
85.7 K, relaxation calorimetry	192.56 J/K/kg
85.74 K, relaxation calorimetry	192.9 J/K/kg
90.59 K, relaxation calorimetry	204.73 J/K/kg
90.72 K, relaxation calorimetry	202.45 J/K/kg
90.78 K, relaxation calorimetry	202.18 J/K/kg
95.61 K, relaxation calorimetry	213.21 J/K/kg
95.73 K, relaxation calorimetry	211.33 J/K/kg
95.82 K, relaxation calorimetry	210.32 J/K/kg
100.79 K, relaxation calorimetry	218.86 J/K/kg and 218.59 J/K/kg
100.93 K, relaxation calorimetry	219.87 J/K/kg
105.73 K, relaxation calorimetry	227.87 J/K/kg
105.8 K, relaxation calorimetry	226.59 J/K/kg
105.86 K, relaxation calorimetry	225.85 J/K/kg
113.65 K, relaxation calorimetry	238.83 J/K/kg
113.74 K, relaxation calorimetry	237.36 J/K/kg
113.8 K, relaxation calorimetry	236.08 J/K/kg
121.58 K, relaxation calorimetry	248.59 J/K/kg
121.67 K, relaxation calorimetry	246.97 J/K/kg
121.74 K, relaxation calorimetry	245.83 J/K/kg
129.51 K, relaxation calorimetry	257.33 J/K/kg
129.61 K, relaxation calorimetry	255.45 J/K/kg
129.66 K, relaxation calorimetry	254.51 J/K/kg
137.44 K, relaxation calorimetry	264.59 J/K/kg
137.56 K, relaxation calorimetry	262.58 J/K/kg and 263.32 J/K/kg
145.45 K, relaxation calorimetry	269.91 J/K/kg
145.46 K, relaxation calorimetry	268.03 J/K/kg
145.47 K, relaxation calorimetry	269.1 J/K/kg
153.32 K, relaxation calorimetry	274.68 J/K/kg
153.34 K, relaxation calorimetry	275.63 J/K/kg
153.36 K, relaxation calorimetry	275.49 J/K/kg
161.23 K, relaxation calorimetry	282.15 J/K/kg
161.3 K, relaxation calorimetry	279.06 J/K/kg
161.31 K, relaxation calorimetry	280.6 J/K/kg
169.16 K, relaxation calorimetry	286.18 J/K/kg
169.22 K, relaxation calorimetry	285.24 J/K/kg and 284.23 J/K/kg
177.11 K, relaxation calorimetry	290.02 J/K/kg
177.12 K, relaxation calorimetry	289.62 J/K/kg and 289.08 J/K/kg
185.02 K, relaxation calorimetry	293.18 J/K/kg
185.03 K, relaxation calorimetry	293.58 J/K/kg
185.05 K, relaxation calorimetry	293.38 J/K/kg
192.93 K, relaxation calorimetry	296.41 J/K/kg
192.95 K, relaxation calorimetry	296.68 J/K/kg
192.96 K, relaxation calorimetry	296.81 J/K/kg
200.83 K, relaxation calorimetry	299.5 J/K/kg
200.86 K, relaxation calorimetry	299.77 J/K/kg
200.88 K, relaxation calorimetry	299.7 J/K/kg
208.74 K, relaxation calorimetry	302.93 J/K/kg
208.76 K, relaxation calorimetry	303 J/K/kg
208.8 K, relaxation calorimetry	302.6 J/K/kg
216.62 K, relaxation calorimetry	305.29 J/K/kg
216.66 K, relaxation calorimetry	304.88 J/K/kg
216.71 K, relaxation calorimetry	304.61 J/K/kg
224.53 K, relaxation calorimetry	308.38 J/K/kg
224.58 K, relaxation calorimetry	307.71 J/K/kg
224.64 K, relaxation calorimetry	307.17 J/K/kg
232.41 K, relaxation calorimetry	310.8 J/K/kg
232.48 K, relaxation calorimetry	309.86 J/K/kg
232.56 K, relaxation calorimetry	309.05 J/K/kg
240.31 K, relaxation calorimetry	311.88 J/K/kg
240.39 K, relaxation calorimetry	310.67 J/K/kg
240.46 K, relaxation calorimetry	310.2 J/K/kg
248.21 K, relaxation calorimetry	312.89 J/K/kg
248.3 K, relaxation calorimetry	312.15 J/K/kg
248.37 K, relaxation calorimetry	311.47 J/K/kg
256.11 K, relaxation calorimetry	314.1 J/K/kg
256.21 K, relaxation calorimetry	313.22 J/K/kg
256.27 K, relaxation calorimetry	312.68 J/K/kg
262.02 K, Extra sensitive DSC	315.04 J/K/kg
264.01 K, relaxation calorimetry	314.5 J/K/kg
264.11 K, relaxation calorimetry	313.9 J/K/kg
264.17 K, relaxation calorimetry	313.42 J/K/kg
265 K, Extra sensitive DSC	315.24 J/K/kg
270 K, Extra sensitive DSC	315.51 J/K/kg
271.91 K, relaxation calorimetry	315.31 J/K/kg
272.02 K, relaxation calorimetry	314.5 J/K/kg
272.07 K, relaxation calorimetry	314.3 J/K/kg
275 K, Extra sensitive DSC	316.52 J/K/kg
279.81 K, relaxation calorimetry	318.13 J/K/kg
279.92 K, relaxation calorimetry	317.12 J/K/kg
279.96 K, relaxation calorimetry	317.06 J/K/kg
280 K, Extra sensitive DSC	317.19 J/K/kg
285 K, Extra sensitive DSC	318.2 J/K/kg
290 K, Extra sensitive DSC	319.21 J/K/kg
295 K, Extra sensitive DSC	319.95 J/K/kg
299.68 K, Extra sensitive DSC	320.55 J/K/kg
307 K, Extra sensitive DSC	321.29 J/K/kg
310 K, Extra sensitive DSC	322.03 J/K/kg
315 K, Extra sensitive DSC	322.3 J/K/kg
320 K, Extra sensitive DSC	322.91 J/K/kg
325 K, Extra sensitive DSC	323.65 J/K/kg
330 K, Extra sensitive DSC	324.52 J/K/kg
335 K, Extra sensitive DSC	325.93 J/K/kg
340 K, Extra sensitive DSC	325.93 J/K/kg
345 K, Extra sensitive DSC	326.94 J/K/kg
350 K, Extra sensitive DSC	328.02 J/K/kg
354.61 K, Extra sensitive DSC	329.03 J/K/kg
358.6 K, Extra sensitive DSC	328.76 J/K/kg
